Assay results from patent US20110039762A1, “TARGETED ANTIMICROBIAL MOIETIES” (C3 JIAN, INC., priority 2009, published 2011).
“Also recorded” adds a separate entry of the source.

Columns and labels:
C. jeikeium = test: Kill or inhibit growth/proliferation; morphology, biofilm and growth disruption (Tables 5, 6); assay type: cell-based, Corynebacterium jeikeium; parameters: key: A: Peptide aggregates; B: Less hyphal formation; Clumps; Diffuse clumps and small polyps; F: Diffuse growth; H: Thin; I: Growth inhibition; Microcolony formation; Rippled; Small polyps; Thick; W: Halo formation on top, microlonies on bottom; also: test concentration or dose not given here
S. pneumoniae = test: as above; assay type: cell-based, Streptococcus pneumoniae; parameters: key: A: Peptide aggregates; B: Less hyphal formation; Clumps; Diffuse clumps and small polyps; F: Diffuse growth; H: Thin; I: Growth inhibition; Microcolony formation; Rippled; Small polyps; Thick; W: Halo formation on top, microlonies on bottom
C. jejuni = test: as above; assay type: cell-based, Campylobacter jejuni; parameters: key: A: Peptide aggregates; B: Less hyphal formation; Clumps; Diffuse clumps and small polyps; F: Diffuse growth; H: Thin; I: Growth inhibition; Microcolony formation; Rippled; Small polyps; Thick; W: Halo formation on top, microlonies on bottom
P. aeruginosa = test: as above; assay type: cell-based, Pseudomonas aeruginosa; parameters: key: A: Peptide aggregates; B: Less hyphal formation; Clumps; Diffuse clumps and small polyps; F: Diffuse growth; H: Thin; I: Growth inhibition; Microcolony formation; Rippled; Small polyps; Thick; W: Halo formation on top, microlonies on bottom
[1] = system: microorganisms (e.g., bacteria, yeasts, fungi); test: Targeting peptide binding to target microorganisms (Table 3); details: microorganism(s) the targeting peptide binds, preferably 1x PBS
microorganisms = test: Peptides having multiple activities (targeting/binding, antimicrobial, growth or phenotype altering)
Text: In certain embodiments, peptides described herein can have multiple activities. Thus for example, a peptide can have both binding/targeting activity and antimicrobial activity. Such peptides can be used, e.g., in a chimeric construct, for any or all of these properties. Thus, for example, a peptide designated “B” in Table 8 can be used as a targeting peptide. If it is also designated G or M it can also be used for antimicrobial activity.

B. subtilis = test: Kill or inhibit growth/proliferation; morphology, biofilm and growth disruption (Tables 5, 6); assay type: cell-based, Bacillus subtilis; parameters: key: A: Peptide aggregates; B: Less hyphal formation; Clumps; Diffuse clumps and small polyps; F: Diffuse growth; H: Thin; I: Growth inhibition; Microcolony formation; Rippled; Small polyps; Thick; W: Halo formation on top, microlonies on bottom; also: test concentration or dose not given here
M. luteus = test: as above; assay type: cell-based, Micrococcus luteus; parameters: key: A: Peptide aggregates; B: Less hyphal formation; Clumps; Diffuse clumps and small polyps; F: Diffuse growth; H: Thin; I: Growth inhibition; Microcolony formation; Rippled; Small polyps; Thick; W: Halo formation on top, microlonies on bottom; also: test concentration or dose not given here
MRSA = test: as above; assay type: cell-based, Methicillin-resistant Staphylococcus aureus; parameters: key: A: Peptide aggregates; B: Less hyphal formation; Clumps; Diffuse clumps and small polyps; F: Diffuse growth; H: Thin; I: Growth inhibition; Microcolony formation; Rippled; Small polyps; Thick; W: Halo formation on top, microlonies on bottom; also: test concentration or dose not given here
S. epidermidis = test: as above; assay type: cell-based, Staphylococcus epidermidis; parameters: key: A: Peptide aggregates; B: Less hyphal formation; Clumps; Diffuse clumps and small polyps; F: Diffuse growth; H: Thin; I: Growth inhibition; Microcolony formation; Rippled; Small polyps; Thick; W: Halo formation on top, microlonies on bottom; also: test concentration or dose not given here
C. albicans = test: as above; assay type: cell-based, Candida albicans; parameters: key: A: Peptide aggregates; B: Less hyphal formation; Clumps; Diffuse clumps and small polyps; F: Diffuse growth; H: Thin; I: Growth inhibition; Microcolony formation; Rippled; Small polyps; Thick; W: Halo formation on top, microlonies on bottom; also: test concentration or dose not given here
E. faecalis = test: as above; assay type: cell-based, Enterococcus faecalis; parameters: key: A: Peptide aggregates; B: Less hyphal formation; Clumps; Diffuse clumps and small polyps; F: Diffuse growth; H: Thin; I: Growth inhibition; Microcolony formation; Rippled; Small polyps; Thick; W: Halo formation on top, microlonies on bottom; also: test concentration or dose not given here
E. coli = test: as above; assay type: cell-based, Escherichia coli; parameters: key: A: Peptide aggregates; B: Less hyphal formation; Clumps; Diffuse clumps and small polyps; F: Diffuse growth; H: Thin; I: Growth inhibition; Microcolony formation; Rippled; Small polyps; Thick; W: Halo formation on top, microlonies on bottom; also: test concentration or dose not given here
[2] = peptide binding conducted in aqueous buffers varied by peptide solubility
For Organism, effect in this document: test concentration or dose not given here.

| Substance | Organism, effect (C. jeikeium) | Organism, effect (S. pneumoniae) | Organism, effect (C. jejuni) | Organism, effect (P. aeruginosa) | Target(s) [1, 2] | Activities (microorganisms) | Organism, effect (B. subtilis) | Organism, effect (M. luteus) | Organism, effect (MRSA) | Organism, effect (S. epidermidis) | Organism, effect (C. albicans) | Target(s) ([1]; binding in aqueous buffers depending on peptide solubility) | Organism, effect (E. faecalis) | Organism, effect (E. coli) |
| --- | --- | --- | --- | --- | --- | --- | --- | --- | --- | --- | --- | --- | --- | --- |
| LNFRAENKILEKIHISLIDTVEGSA [PF-575] | C. jeikeium (A) | S. pneumoniae (A) | C. jejuni (R) | P. aeruginosa (A) | M. luteus and E. coli and C. albicans and MRSA and S. pneumoniae and E. faecalis and C. jeikeium | G B | – | – | – | – | – | – | – | – |
| PF-063: peptide having multiple activities (chain 1 IAAIIVLVLFQKGLLQIFNWILIQLQ; chain 2 IAAIIVLVLFQKGLLQIFNWILIQLQ; Peptide with targeting and/or antimicrobial activity) | C. jeikeium (D) | S. pneumoniae (D) | C. jejuni (D) | P. aeruginosa (A) | – | G B | B. subtilis (C) | M. luteus (R) | MRSA (M) | S. epidermidis (R) | – | – | – | – |
| PF-067: peptide having multiple activities (DLIVKVHICFVVKTASGYCYLNKREAQAAI; Peptide with targeting and/or antimicrobial activity) | C. jeikeium (D) | S. pneumoniae (D) | C. jejuni (D) | P. aeruginosa (A) | – | G B | B. subtilis (C) | M. luteus (R) | MRSA (M) | S. epidermidis (D) | – | – | – | – |
| PF-140: peptide having multiple activities (FHRRVIRASEWALTTRSFSTPLRSAAR; Peptide with targeting and/or antimicrobial activity) | C. jeikeium (D) | S. pneumoniae (D) | C. jejuni (D) | P. aeruginosa (A) | – | G B | – | M. luteus (R) | MRSA (M) | S. epidermidis (D) | C. albicans (B) | – | – | – |
| PF-204: peptide having multiple activities (ALQKQDMNLPSVKNQLVFLKSTG; Peptide with targeting and/or antimicrobial activity) | C. jeikeium (D) | – | – | P. aeruginosa (H) | – | G B | – | M. luteus (C) | – | S. epidermidis (C) | – | S. epidermidis; also recorded: P. mirabilis; also recorded: E. coli; also recorded: P. aeruginosa; also recorded: C. albicans; also recorded: C. jejuni | – | – |
| PF-380: peptide having multiple activities (chain 1 KKIIPLITLFVVTLVG; chain 2 KKIIPLITLFVVTLVG; Peptide with targeting and/or antimicrobial activity) | – | S. pneumoniae (D) | C. jejuni (D) | P. aeruginosa (A) | – | G B | – | – | MRSA (D) | S. epidermidis (C) | – | – | E. faecalis (C) | E. coli (C) |
| PF-411: peptide having multiple activities (WVAVAILLNIALQTQLT; Peptide with targeting and/or antimicrobial activity) | – | S. pneumoniae (D) | C. jejuni (D) | P. aeruginosa (A) | – | G B | – | – | MRSA (D) | S. epidermidis (C) | – | – | E. faecalis (D) | E. coli (C) |
| PF-425: peptide having multiple activities (MMELVLKTIIGPIVVGVVLRIVDKWLNKDK; Peptide with targeting and/or antimicrobial activity) | – | S. pneumoniae (D) | C. jejuni (D) | P. aeruginosa (A) | S. epidermidis and M. luteus and E. coli and P. aeruginosa and C. albicans and MRSA and S. pneumoniae and C. jeikeium | G B | – | – | MRSA (D) | S. epidermidis (D) | C. albicans (A) | – | E. faecalis (D) | E. coli (C) |
| PF-432: peptide having multiple activities (FNGDSEFFLCIAF; Peptide with targeting and/or antimicrobial activity) | – | S. pneumoniae (D) | C. jejuni (D) | P. aeruginosa (A) | – | G B | – | – | MRSA (M) | S. epidermidis (M) | – | – | E. faecalis (D) | E. coli (R) |
| PF-474: peptide having multiple activities (chain 1 MHRNLVLVKMEPIPHIMIIANQIGIIIEKA; chain 2 MHRNLVLVKMEPIPHIMIIANQIGIIIEKA; Peptide with targeting and/or antimicrobial activity) | – | S. pneumoniae (D) | C. jejuni (D) | P. aeruginosa (A) | – | G B | – | – | MRSA (D) | S. epidermidis (C) | C. albicans (B) | – | E. faecalis (C) | E. coli (C) |
| PF-577: peptide having multiple activities (chain 1 PFETRESFRVPVIGILGGWDYFMHP; chain 2 PFETRESFRVPVIGILGGWDYFMHP; Peptide with targeting and/or antimicrobial activity) | – | S. pneumoniae (R) | C. jejuni (R) | P. aeruginosa (A) | – | G B | – | – | MRSA (M) | S. epidermidis (A) | – | – | E. faecalis (A) | E. coli (A) |
| PF-605: peptide having multiple activities (HYRWNTQWWKY; Peptide with targeting and/or antimicrobial activity) | – | S. pneumoniae (D) | C. jejuni (R) | P. aeruginosa (A) | – | G B | – | – | MRSA (C) | S. epidermidis (R) | C. albicans (B) | – | E. faecalis (R) | E. coli (C) |
